From patent US20150344466A1 (SUMITOMO CHEMICAL COMPANY, LIMITED, priority 2013, published 2015)

Columns and labels:
Type in all cases: in vivo
[1] = system: Blattella germanica; assay: Knockdown spray test on Blattella germanica, 2.0% w/v oil formulation (Test Example 1); settings: topical, 0.25 h, active ingredient 2.0% w/v, 1.5 ml sprayed, within 15 minutes, read-out: knockdown rate of the test insects within 15 minutes
Description: Ten Blattella germanica (5 males and 5 females) were released in a test container (8.75 cm in diameter, 7.5 cm in height, and the bottom made of 16 mesh metallic wire) with the inner wall on which butter was applied, and the container was placed on the bottom of a test chamber (bottom: 46 cm×46 cm, height: 70 cm). From a height of 60 cm above the upper surface of the container, 1.5 ml of the test drug solution was sprayed using a spray gun (a spraying pressure of 0.42 kg/cm^2). Thirty seconds after spraying, the container was taken out from the test chamber, and after 2 minutes, 5 minutes and 15 minutes, the number of knocked-down insects was counted to obtain a knockdown rate. The knockdown rate was calculated by the following equation.
(§1) Knockdown Rate (%)=(Number of Knocked-down Insects/Number of Tested Insects)×100

[2] = system: Musca domestica; assay: Knockdown spray test on adult Musca domestica (Test Example 3); settings: topical, 0.25 h, active ingredient 2.0% w/v, 0.5 ml sprayed, within 15 minutes, read-out: knockdown rate of the test insects within 15 minutes
Description: Ten adult Musca domestica (five males and five females) were released in a polyethylene cup (bottom diameter: 10.6 cm), and the cup was covered with a 16-mesh nylon gauze. The polyethylene cup was placed on the bottom of a test chamber (bottom: 46 cm×46 cm, height: 70 cm). From a height of 30 cm above the upper surface of the polyethylene cup, 0.5 ml of the test drug solution was sprayed using a spray gun (a spraying pressure of 0.9 kg/cm^2). Immediately after spraying, the cup was taken out from the test chamber, and after 2 minutes, 5 minutes and 15 minutes, the number of knocked-down insects was counted to obtain a knockdown rate. The knockdown rate was calculated by the following equation.
as §1

[3] = system: Culex pipiens pallens; assay: Knockdown spray test on adult Culex pipiens pallens (Test Example 4); settings: topical, 0.25 h, active ingredient 0.1% w/v, 0.5 ml sprayed, within 15 minutes, read-out: knockdown rate of the test insects within 15 minutes
Method in brief: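 Knockdown counts were taken 2, 5 and 15 min after spraying and expressed as percent of the 10 adults tested. For the spray, 0.5 ml of solution was applied by spray gun (0.4 kg/cm^2) from 30 cm above a gauze-covered cup in a test chamber; the cup was taken out right after spraying.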

[4] = system: Musca domestica; assay: Filter paper/sucrose bait death rate test on Musca domestica (Test Example 5); settings: female imagoes of Musca domestica, 0.7 ml on filter paper, after 24 hours
Description: A filter paper having a diameter of 5.5 cm was spread on the bottom of a polyethylene cup having the same diameter and 0.7 ml of the test drug solution was added dropwise onto the filter paper, and 30 mg of sucrose was uniformly placed as bait.
Into the polyethylene cup, 10 female imagoes of Musca domestica were released, and the cup was sealed with a lid. After 24 hours, the life and death of Musca domestica was examined, and the death rate was calculated. The death rate was calculated by the following equation.
Death rate (%)=(Number of dead insects/Number of tested insects)×100

[5] = system: Blattella germanica; assay: Knockdown spray test on Blattella germanica, 0.1% w/v oil formulation (Test Example 2); settings: topical, 0.25 h, active ingredient 0.1% w/v, 1.5 ml sprayed, within 15 minutes, read-out: knockdown rate of the test insects within 15 minutes
Method in brief: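 Ten German cockroaches (5 males, 5 females) in a mesh-bottomed, butter-walled container were sprayed with 1.5 ml test solution from 60 cm at 0.42 kg/cm^2 inside a chamber.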

[6] = system: Plutella xylostella; assay: Foliar spray test on Plutella xylostella on cabbage (Test Example 10); settings: 120 h, third instar larvae of Plutella xylostella on cabbage, 500 ppm spray 20 ml/cup, after five days, read-out: controlling value
Description: On the other hand, cabbage was planted in a polyethylene cup, and grown until the third-fourth true leaf was spread. The test spray solution was sprayed to the cabbage at a ratio of 20 ml/cup. After the drug solution sprayed on the cabbage was dried, 10 third instar larvae of Plutella xylostella were allowed to parasitize the cabbage. After five days, the number of Plutella xylostella was investigated, and the controlling value was calculated according to the following standard. Controlling value (%)={1−(Cb×Tai)/(Cai×Tb)}×100 In the equation, the symbols represent as follows. Cb: the number of insects in a non-treated section before treatment Cai: the number of insects in a non-treated section on observation Tb: the number of insects in a treated section before treatment Tai: the number of insects in a treated section on observation

O=C(NCC1CCOC1)c1cc(CCCc2ccccc2)on1 (stereo not shown) [(22), N-(tetrahydrofuran-3-ylmethyl)-5-(3-phenylpropyl)isoxazole-3-carboxamide]
pest or weed control at 2 % strength [1]: ≥ 80%
pest or weed control at 2 % strength [2]: ≥ 80%
pest or weed control at 0.1 % strength [3]: ≥ 80%
pest or weed control at 500 ppm [4]: ≥ 90%

O=C(NCC1CCOC1)c1cc(Cc2cccc(C(F)(F)F)c2)on1 (stereo not shown) [(158), N-(tetrahydrofuran-3-ylmethyl)-5-(3-trifluoromethylbenzyl)isoxazole-3-carboxamide]
pest or weed control at 2 % strength [1]: ≥ 80%
pest or weed control at 2 % strength [2]: ≥ 80%
pest or weed control at 0.1 % strength [3]: ≥ 80%

O=C(NCC1CCOC1)c1cc(COCc2ccccc2F)on1 (stereo not shown) [(264), N-(tetrahydrofuran-3-ylmethyl)-5-(2-fluorobenzyloxymethyl)isoxazole-3-carboxamide]
pest or weed control at 0.1 % strength [5]: ≥ 80%
pest or weed control at 2 % strength [2]: ≥ 80%
pest or weed control at 0.1 % strength [3]: ≥ 80%
pest or weed control at 500 ppm [4]: ≥ 90%

O=C(NCC1CCOC1)c1cc(CCCCCCOCc2ccccc2)on1 (stereo not shown) [(143), N-(tetrahydrofuran-3-ylmethyl)-5-(6-benzyloxyhexyl)isoxazole-3-carboxamide]
pest or weed control at 2 % strength [1]: ≥ 80%
pest or weed control at 2 % strength [2]: ≥ 80%
pest or weed control at 0.1 % strength [3]: ≥ 80%

O=C(NCC1CCOC1)c1cc(CCCCOCc2ccccc2)on1 (stereo not shown) [(140), N-(tetrahydrofuran-3-ylmethyl)-5-(4-benzyloxybutyl)isoxazole-3-carboxamide]
pest or weed control at 2 % strength [1]: ≥ 80%
pest or weed control at 2 % strength [2]: ≥ 80%
pest or weed control at 0.1 % strength [3]: ≥ 80%

O=C(NCC1CCOC1)c1cc(COCCC2CCCC2)on1 (stereo not shown) [(132), N-(tetrahydrofuran-3-ylmethyl)-5-(2-cyclopentylethyl)oxymethylisoxazole-3-carboxamide]
pest or weed control at 0.1 % strength [5]: ≥ 80%
pest or weed control at 2 % strength [2]: ≥ 80%
pest or weed control at 0.1 % strength [3]: ≥ 80%
pest or weed control at 500 ppm [4]: ≥ 90%

CCCCc1cc(C(=O)NCC2CCOC2)no1 (stereo not shown) [(11), N-(tetrahydrofuran-3-ylmethyl)-5-butylisoxazole-3-carboxamide]
pest or weed control at 2 % strength [1]: ≥ 80%
pest or weed control at 2 % strength [2]: ≥ 80%
pest or weed control at 0.1 % strength [3]: ≥ 80%

Cc1c(C(=O)NCC2CCOC2)noc1COCc1ccccc1 (stereo not shown) [(169), N-(tetrahydrofuran-3-ylmethyl)-(5-benzyloxymethyl-4-methyl) isoxazole-3-carboxamide]
pest or weed control at 0.1 % strength [5]: ≥ 80%
pest or weed control at 2 % strength [2]: ≥ 80%
pest or weed control at 0.1 % strength [3]: ≥ 80%

O=C(NCC1CCOC1)c1cc(COCC2CCc3ccccc3C2)on1 (stereo not shown) [(118), N-(tetrahydrofuran-3-ylmethyl)-5-(1,2,3,4-tetrahydronaphthalen-2-ylmethoxymethyl)isoxazole-3-carboxamide]
pest or weed control at 2 % strength [1]: ≥ 80%
pest or weed control at 2 % strength [2]: ≥ 80%
pest or weed control at 0.1 % strength [3]: ≥ 80%
pest or weed control at 500 ppm [6]: ≥ 90%

O=C(NCC1CCOC1)c1cc(CCCCCOCc2ccccc2)on1 (stereo not shown) [(141), N-(tetrahydrofuran-3-ylmethyl)-5-(5-benzyloxypentyl)isoxazole-3-carboxamide]
pest or weed control at 2 % strength [1]: ≥ 80%
pest or weed control at 2 % strength [2]: ≥ 80%
pest or weed control at 0.1 % strength [3]: ≥ 80%

CC1(CNC(=O)c2cc(COCc3ccccc3)on2)COC1 [(334), N-(3-methyloxetan-3-ylmethyl)-5-benzyloxymethylisoxazole-3-carboxamide]
pest or weed control at 2 % strength [1]: ≥ 80%
pest or weed control at 0.1 % strength [5]: ≥ 80%
pest or weed control at 2 % strength [2]: ≥ 80%
pest or weed control at 0.1 % strength [3]: ≥ 80%

O=C(NCC1CCOC1)c1cc(COCc2cccc3ccccc23)on1 (stereo not shown) [(27), N-(tetrahydrofuran-3-ylmethyl)-5-(1-naphthylmethoxymethyl)isoxazole-3-carboxamide]
pest or weed control at 2 % strength [1]: ≥ 80%
pest or weed control at 2 % strength [2]: ≥ 80%
pest or weed control at 0.1 % strength [3]: ≥ 80%

O=C(NCC1CCOCC1)c1cc(CCCc2ccccc2)on1 [(235), N-(tetrahydropyran-4-ylmethyl)-5-(3-phenylpropyl)isoxazole-3-carboxamide]
pest or weed control at 0.1 % strength [5]: ≥ 80%
pest or weed control at 2 % strength [2]: ≥ 80%
pest or weed control at 0.1 % strength [3]: ≥ 80%

O=C(NCC1CCOC1)c1cc(COCc2cccc(-c3ccccc3)c2)on1 (stereo not shown) [(113), N1-(tetrahydrofuran-3-ylmethyl)-5-(3-phenylbenzyloxymethyl)isoxazole-3-carboxamide]
pest or weed control at 2 % strength [1]: ≥ 80%
pest or weed control at 2 % strength [2]: ≥ 80%
pest or weed control at 0.1 % strength [3]: ≥ 80%

O=C(NCC1CCOC1)c1cc(COCC#Cc2ccccc2)on1 (stereo not shown) [(240), N-(tetrahydrofuran-3-ylmethyl)-5-(3-phenyl-2-propionyl)oxymethylisoxazole-3-carboxamide]
pest or weed control at 2 % strength [1]: ≥ 80%
pest or weed control at 0.1 % strength [5]: ≥ 80%
pest or weed control at 2 % strength [2]: ≥ 80%
pest or weed control at 0.1 % strength [3]: ≥ 80%

O=C(NCC1CCOC1)c1cc(Cc2cccc3ccccc23)on1 (stereo not shown) [(160), N-(tetrahydrofuran-3-ylmethyl)-5-(naphthalen-1-ylmethyl)isoxazole-3-carboxamide]
pest or weed control at 2 % strength [2]: ≥ 80%
pest or weed control at 0.1 % strength [3]: ≥ 80%

O=C(NCC1CCOC1)c1cc(CCCOCc2ccccc2)on1 (stereo not shown) [(139), N-(tetrahydrofuran-3-ylmethyl)-5-(3-benzyloxypropyl)isoxazole-3-carboxamide]
pest or weed control at 2 % strength [1]: ≥ 80%
pest or weed control at 2 % strength [2]: ≥ 80%
pest or weed control at 0.1 % strength [3]: ≥ 80%

O=C(NCC1CCCCO1)c1cc(COCc2ccccc2)on1 (stereo not shown) [(14), N-(tetrahydropyran-2-ylmethyl)-5-benzyloxymethylisoxazole-3-carboxamide]
pest or weed control at 2 % strength [1]: ≥ 80%
pest or weed control at 2 % strength [2]: ≥ 80%
pest or weed control at 0.1 % strength [3]: ≥ 80%

O=C(NCC1CCOC1)c1cc(COCc2cccc(C(F)(F)F)c2)on1 (stereo not shown) [(64), N-(tetrahydrofuran-3-ylmethyl)-5-(3-trifluoromethylbenzyloxymethyl)isoxazole-3-carboxamide]
pest or weed control at 2 % strength [1]: ≥ 80%
pest or weed control at 2 % strength [2]: ≥ 80%
pest or weed control at 0.1 % strength [3]: ≥ 80%

O=C(NCC1CCOC1)c1cc(Cc2ccccc2)on1 (stereo not shown) [(26), N-(tetrahydrofuran-3-ylmethyl)-5-benzylisoxazole-3-carboxamide]
pest or weed control at 2 % strength [1]: ≥ 80%
pest or weed control at 2 % strength [2]: ≥ 80%
pest or weed control at 0.1 % strength [3]: ≥ 80%
pest or weed control at 500 ppm [4]: ≥ 90%

O=C(NCC1CCOC1)c1cc(COc2ccccc2Cl)on1 (stereo not shown) [(176), N-(tetrahydrofuran-3-ylmethyl)-5-(2-chlorophenoxymethyl)isoxazole-3-carboxamide]
pest or weed control at 0.1 % strength [5]: ≥ 80%
pest or weed control at 2 % strength [2]: ≥ 80%
pest or weed control at 0.1 % strength [3]: ≥ 80%
pest or weed control at 500 ppm [4]: ≥ 90%

Cc1c(C(=O)NCC2CCOC2)noc1COCc1ccc2ccccc2c1 (stereo not shown) [(213), N-(tetrahydrofuran-3-ylmethyl)-4-methyl-5-(2-naphthylmethoxymethyl)isoxazole-3-carboxamide]
pest or weed control at 0.1 % strength [5]: ≥ 80%
pest or weed control at 2 % strength [2]: ≥ 80%
pest or weed control at 0.1 % strength [3]: ≥ 80%

O=C(NCC1CCOC1)c1cc(COCC2COc3ccccc3O2)on1 (stereo not shown) [(120), N-(tetrahydrofuran-3-ylmethyl)-5-(1,4-benzodioxan-2-ylmethoxymethyl)isoxazole-3-carboxamide]
pest or weed control at 0.1 % strength [5]: ≥ 80%
pest or weed control at 2 % strength [2]: ≥ 80%
pest or weed control at 0.1 % strength [3]: ≥ 80%
